Assay results: patent US5527781A, “4-O-(aminoglycosyl)- or 4,6-di-O-(aminoglycosyl)-2,5-dideoxy-5,5-difluorostreptamine derivatives” (Zaidan Hojin Biseibutsu Kagaku Kenkyu Kai, priority 1990, dated 1996)
≈ marks a conversion by molar mass, not a printed value. Like-named read-outs stand apart in the source and are kept apart here.

What was measured:
[1] = test system: Staphylococcus aureus Ap01; assay: MIC, standard serial dilution method; assay type: cell-based; conditions: resistance mechanism ANT(4'), Mueller-Hinton agar, 37° C
Escherichia coli K-12 = assay: MIC, standard serial dilution method; assay type: cell-based; conditions: K12
[2] = test system: Escherichia coli K-12 ML 1629; assay: microbe, parasite or virus in culture; assay type: cell-based; conditions: K12ML1629
[3] = test system: Escherichia coli K-12 LA 290 R55; assay: microbe, parasite or virus in culture; assay type: cell-based; conditions: K12LA290R55; Escherichia coli K-12 LA 290 R55; resistance mechanism ANT(2"); Mueller-Hinton agar, 37° C
Escherichia coli JR225 = assay: microbe, parasite or virus in culture; assay type: cell-based; conditions: resistance mechanism AAC(3), Mueller-Hinton agar, 37° C
Mycobacterium 607 = assay: MIC, standard serial dilution method; assay type: cell-based; conditions: Mueller-Hinton agar, 37° C
[4] = test system: Klebsiella pneumoniae 22#3038; assay: MIC, standard serial dilution method; assay type: cell-based; conditions: resistance mechanism APH(3')-II, ANT(2"), Mueller-Hinton agar, 37° C
Serratia marcescens = assay: MIC, standard serial dilution method; assay type: cell-based; conditions: Mueller-Hinton agar, 37° C
Providencia sp. Pv 16 = assay: MIC, standard serial dilution method; assay type: cell-based; conditions: SP.PV16, resistance mechanism AAC(2'), Mueller-Hinton agar, 37° C
[5] = test system: Pseudomonas aeruginosa A3; assay: MIC, standard serial dilution method; assay type: cell-based; conditions: Mueller-Hinton agar, 37° C
[6] = test system: Pseudomonas aeruginosa GN 315; assay: MIC, standard serial dilution method; assay type: cell-based; conditions: GN315
[7] = test system: Staphylococcus aureus 209P; assay: MIC, standard serial dilution method; assay type: cell-based; conditions: Mueller-Hinton agar, 37° C
Bacillus subtilis PCI219 = assay: MIC, standard serial dilution method; assay type: cell-based; conditions: Mueller-Hinton agar, 37° C
[8] = test system: Corynebacterium bovis 1810; assay: MIC, standard serial dilution method; assay type: cell-based; conditions: Mueller-Hinton agar, 37° C
Escherichia coli K-12 R5 = assay: microbe, parasite or virus in culture; assay type: cell-based; conditions: K12R5; Escherichia coli K-12 R5; resistance mechanism AAC(6'); Mueller-Hinton agar, 37° C
Proteus rettgeri GN 311 = assay: MIC, standard serial dilution method; assay type: cell-based; conditions: Providencia rettgeri, GN311; Proteus rettgeri GN 311; Mueller-Hinton agar, 37° C; read-out: MIC
in vivo = conditions: mouse, iv, pH 7
Text: Further, in order to estimate acute toxicity of the compound of the general formula (I) according to this invention, some examples of the compounds of this invention were independently dissolved in water to prepare aqueous solutions (as adjusted to pH 7 by addition of hydrochloric acid). […] The tested compounds of this invention are expressed by the same abbreviations as in Table 1. […] The comparative compounds as tested are also expressed by the same abbreviations as in Table 1.

[9] = Escherichia coli K-12, Mueller-Hinton agar, 37° C, read-out: MIC
[10] = Escherichia coli K-12 ML 1629, resistance mechanism APH(3')-I, Mueller-Hinton agar, 37° C, read-out: MIC
[11] = Pseudomonas aeruginosa GN 315, resistance mechanism AAC(6'), Mueller-Hinton agar, 37° C, read-out: MIC

Structure (SMILES)	MIC [1] [µg/mL]	MIC (Escherichia coli K-12; [9]) [µg/mL]	MIC [2, 10] [µg/mL]	MIC [3] [µg/mL]	MIC (Escherichia coli JR225) [µg/mL]	MIC (Mycobacterium 607) [µg/mL]	MIC [4] [µg/mL]	MIC (Serratia marcescens) [µg/mL]	MIC (Providencia sp. Pv 16) [µg/mL]	MIC [5] [µg/mL]	MIC [6, 11] [µg/mL]	MIC [7] [µg/mL]	MIC (Bacillus subtilis PCI219) [µg/mL]	MIC [8] [µg/mL]	MIC (Escherichia coli K-12; Escherichia coli) [µg/mL]	MIC (Escherichia coli K-12 R5) [µg/mL]	MIC (Proteus rettgeri GN 311) [µg/mL]	LD50 (in vivo) [mg/kg]	MIC ([6]; Pseudomonas aeruginosa) [µg/mL]	MIC ([2]; Escherichia coli) [µg/mL]
NCC[C@H](O)C(=O)N[C@@H]1C[C@H](N)[C@@H](O[C@H]2O[C@H](CN)[C@@H](O)C[C@H]2N)[C@H](F)[C@H]1O[C@H]1O[C@H](CO)[C@@H](O)[C@H](N)[C@H]1O [Compound 5F-TOB-AHB, 1-N-[4-amino-2-(S)-hydroxybutyryl]-5,3'-dideoxy-5-fluorokanamycinB, reference compound]	3.12 (≈ 5.47 µM)	< 0.2	0.39 (≈ 0.683 µM)	0.39 (≈ 0.683 µM)	< 0.2	0.39 (≈ 0.683 µM)	0.78 (≈ 1.37 µM)	3.12 (≈ 5.47 µM)	0.39 (≈ 0.683 µM)	< 0.2	1.56 (≈ 2.73 µM)	–	–	–	–	–	–	–	–	–
NC[C@H]1O[C@H](O[C@@H]2[C@@H](N)C[C@@H](N)[C@H](O[C@H]3O[C@H](CO)[C@@H](O)[C@H](N)[C@H]3O)C2(F)F)[C@H](O)[C@@H](O)[C@@H]1O [Compound 5FF-KMA, 5-deoxy-5,5-difluorokanamycin A]	50 (≈ 99.1 µM)	–	> 100	12.5 (≈ 24.8 µM)	1.56 (≈ 3.09 µM)	3.12 (≈ 6.18 µM)	–	12.5 (≈ 24.8 µM)	12.5 (≈ 24.8 µM)	6.25 (≈ 12.4 µM)	> 100	3.12 (≈ 6.18 µM)	0.78 (≈ 1.55 µM)	12.5 (≈ 24.8 µM)	0.78 (≈ 1.55 µM)	> 100	1.56 (≈ 3.09 µM)	> 300	–	–
NC[C@H]1O[C@H](O[C@@H]2[C@@H](N)C[C@@H](N)[C@H](O[C@H]3O[C@H](CO)[C@@H](O)[C@H](N)[C@H]3O)C2(F)F)[C@H](N)[C@@H](O)[C@@H]1O [Compound 5FF-KMB, 5-deoxy-5,5-difluorokanamycin B]	50 (≈ 99.3 µM)	0.39 (≈ 0.775 µM)	> 100	3.12 (≈ 6.2 µM)	3.12 (≈ 6.2 µM)	1.56 (≈ 3.1 µM)	–	6.25 (≈ 12.4 µM)	12.5 (≈ 24.8 µM)	3.12 (≈ 6.2 µM)	> 100	0.78 (≈ 1.55 µM)	0.39 (≈ 0.775 µM)	1.56 (≈ 3.1 µM)	–	100 (≈ 199 µM)	0.39 (≈ 0.775 µM)	–	–	–
NC[C@@H]1CC[C@@H](N)[C@@H](O[C@H]2[C@H](O)[C@@H](O[C@H]3O[C@H](CO)[C@@H](O)[C@H](N)[C@H]3O)[C@H](N)C[C@@H]2N)O1 [DKB, 3',4'-dideoxy-kanamycin B, reference compound]	–	0.39 (≈ 0.864 µM)	–	–	–	–	50 (≈ 111 µM)	–	–	–	–	–	< 0.2	–	–	–	< 0.2	–	100 (≈ 221 µM)	–
NCC[C@H](O)C(=O)N[C@@H]1C[C@H](N)[C@@H](O[C@H]2O[C@H](CN)CC[C@H]2N)[C@H](O)[C@H]1O[C@H]1O[C@H](CO)[C@@H](O)[C@H](N)[C@H]1O [HBK, 1-N-[4-amino-(S)-2-hydroxybutyryl]-3',4'-dideoxykanamycin B, reference compound]	–	–	–	–	–	–	–	–	–	–	–	–	–	–	–	–	–	70	–	–
NC[C@H]1O[C@H](O[C@H]2[C@H](O)[C@@H](O[C@H]3O[C@H](CO)[C@@H](O)[C@H](N)[C@H]3O)[C@H](N)C[C@@H]2N)[C@H](N)[C@@H](O)[C@@H]1O [KMB, kanamycin B, reference compound]	–	0.39 (≈ 0.807 µM)	> 100	–	–	–	> 100	–	12.5 (≈ 25.9 µM)	1.56 (≈ 3.23 µM)	–	0.39 (≈ 0.807 µM)	< 0.2	–	–	–	0.2 (≈ 0.414 µM)	–	–	–
NC[C@H]1O[C@H](O[C@H]2[C@H](O)[C@@H](O[C@H]3O[C@H](CO)[C@@H](O)[C@H](N)[C@H]3O)[C@H](N)C[C@@H]2N)[C@H](N)C[C@@H]1O [TOB, 3'-deoxykanamycin B, reference compound]	12.5 (≈ 26.7 µM)	0.39 (≈ 0.834 µM)	–	12.5 (≈ 26.7 µM)	–	0.39 (≈ 0.834 µM)	12.5 (≈ 26.7 µM)	3.12 (≈ 6.67 µM)	6.25 (≈ 13.4 µM)	–	25 (≈ 53.5 µM)	< 0.2	< 0.2	1.56 (≈ 3.34 µM)	–	25 (≈ 53.5 µM)	0.39 (≈ 0.834 µM)	~80	–	0.78 (≈ 1.67 µM)
